Reference: ChEMBL document CHEMBL4706518, “Discovery of MGS0274, an ester prodrug of a metabotropic glutamate receptor 2/3 agonist with improved oral bioavailability” (Eur J Med Chem, 2020)
Active and inactive are the calls of the source.

How the values were obtained:
[1] = biological target: Histamine H3 receptor (Homo sapiens) (UniProt Q9Y5N1); assay: Binding affinity to H3 receptor (unknown origin) 10 umol/L by radioligand binding assay; details: dose 10.0 µmol/L
[2] = biological target: Endothelin-1 receptor (Homo sapiens) (UniProt P25101); assay: Binding affinity to ETA receptor (unknown origin) 10 umol/L by radioligand binding assay; details: dose 10.0 µmol/L
Sequence of Endothelin-1 receptor (Homo sapiens) (P25101 whole entry): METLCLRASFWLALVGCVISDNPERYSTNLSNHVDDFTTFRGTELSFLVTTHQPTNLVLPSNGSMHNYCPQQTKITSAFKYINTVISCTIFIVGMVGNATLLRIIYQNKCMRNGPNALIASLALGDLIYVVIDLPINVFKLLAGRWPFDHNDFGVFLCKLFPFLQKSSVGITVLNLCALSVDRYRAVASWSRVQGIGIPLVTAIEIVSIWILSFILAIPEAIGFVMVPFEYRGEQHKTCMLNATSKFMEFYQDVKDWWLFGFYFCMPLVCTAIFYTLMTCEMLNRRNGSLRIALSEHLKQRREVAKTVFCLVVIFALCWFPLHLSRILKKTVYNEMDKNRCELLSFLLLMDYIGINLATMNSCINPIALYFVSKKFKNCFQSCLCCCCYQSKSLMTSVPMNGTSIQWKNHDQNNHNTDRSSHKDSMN

[3] = biological target: Muscarinic acetylcholine receptor M3 (Homo sapiens) (UniProt P20309); assay: Binding affinity to muscarinic M3 (unknown origin) 10 umol/L by radioligand binding assay; details: dose 10.0 µmol/L
[4] = biological target: Vasopressin V2 receptor (Homo sapiens) (UniProt P30518); assay: Binding affinity to Vasopressin V2 receptor (unknown origin) 10 umol/L by radioligand binding assay; details: dose 10.0 µmol/L
Homo sapiens [5] = species: Homo sapiens; assay: Binding affinity to Leukotriene B4 receptor (unknown origin) 10 umol/L by radioligand binding assay; details: dose 10.0 µmol/L
[6] = biological target: Neuromedin-K receptor (Homo sapiens) (UniProt P29371); assay: Binding affinity to NK3 receptor (unknown origin) 10 umol/L by radioligand binding assay; details: dose 10.0 µmol/L
Homo sapiens [7] = species: Homo sapiens; assay: Binding affinity to Imidazole receptor (unknown origin) 10 umol/L by radioligand binding assay; details: dose 10.0 µmol/L
[8] = biological target: Neurotensin receptor type 1 (Homo sapiens) (UniProt P30989); assay: Binding affinity to NT1 receptor (unknown origin) 10 umol/L by radioligand binding assay; details: dose 10.0 µmol/L
[9] = biological target: Sodium-dependent dopamine transporter (Homo sapiens) (UniProt Q01959); assay: Binding affinity to dopamine transporter (unknown origin) 10 umol/L by radioligand binding assay; details: dose 10.0 µmol/L
[10] = Lipophilicity, logD of compound in n-octanol and phosphate buffered saline at 2 mg after 1.5 hrs by HPLC based shake flask method; type: physicochemical; details: n-octanol/phosphate buffered saline
[11] = biological target: Alpha-2B adrenergic receptor (Homo sapiens) (UniProt P18089); assay: Binding affinity to alpha2B adrenoreceptor (unknown origin) 10 umol/L by radioligand binding assay; details: dose 10.0 µmol/L
Sequence of Alpha-2B adrenergic receptor (Homo sapiens) (P18089 whole entry): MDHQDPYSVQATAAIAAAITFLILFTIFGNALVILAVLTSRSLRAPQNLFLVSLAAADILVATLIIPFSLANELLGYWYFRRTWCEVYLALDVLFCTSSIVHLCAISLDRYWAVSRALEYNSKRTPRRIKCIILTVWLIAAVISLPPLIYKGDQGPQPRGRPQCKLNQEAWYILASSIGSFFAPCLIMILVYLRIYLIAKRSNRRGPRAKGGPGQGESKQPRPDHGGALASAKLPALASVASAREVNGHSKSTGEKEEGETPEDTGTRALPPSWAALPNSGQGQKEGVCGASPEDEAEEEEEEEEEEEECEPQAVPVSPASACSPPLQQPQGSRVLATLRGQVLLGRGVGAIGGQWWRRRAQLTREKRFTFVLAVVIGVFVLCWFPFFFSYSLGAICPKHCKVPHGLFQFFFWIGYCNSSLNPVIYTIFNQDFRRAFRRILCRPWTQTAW

Homo sapiens [12] = species: Homo sapiens; assay: Binding affinity to bombesin receptor (unknown origin) 10 umol/L by radioligand binding assay; details: dose 10.0 µmol/L
[13] = biological target: Kappa-type opioid receptor (Homo sapiens) (UniProt P41145); assay: Binding affinity to kappa receptor (unknown origin) 10 umol/L by radioligand binding assay; details: dose 10.0 µmol/L
[14] = biological target: Beta-1 adrenergic receptor (Homo sapiens) (UniProt P08588); assay: Binding affinity to beta1 adrenoreceptor (unknown origin) 10 umol/L by radioligand binding assay; details: dose 10.0 µmol/L
[15] = biological target: T1, Voltage-gated L-type calcium channel (Homo sapiens, UniProt Q13936+Q13698+Q01668+O60840); assay: Binding affinity to Voltage-dependent L-type calcium channel dihydropyridine site (unknown origin) 10 umol/L by radioligand binding assay; type: protein assay; details: 10 µM, dose 10 µmol/L
[16] = biological target: Beta-2 adrenergic receptor (Homo sapiens) (UniProt P07550); assay: Binding affinity to beta2 adrenoreceptor (unknown origin) 10 umol/L by radioligand binding assay; details: dose 10.0 µmol/L
Sequence of Beta-2 adrenergic receptor (Homo sapiens) (P07550 whole entry, looked up): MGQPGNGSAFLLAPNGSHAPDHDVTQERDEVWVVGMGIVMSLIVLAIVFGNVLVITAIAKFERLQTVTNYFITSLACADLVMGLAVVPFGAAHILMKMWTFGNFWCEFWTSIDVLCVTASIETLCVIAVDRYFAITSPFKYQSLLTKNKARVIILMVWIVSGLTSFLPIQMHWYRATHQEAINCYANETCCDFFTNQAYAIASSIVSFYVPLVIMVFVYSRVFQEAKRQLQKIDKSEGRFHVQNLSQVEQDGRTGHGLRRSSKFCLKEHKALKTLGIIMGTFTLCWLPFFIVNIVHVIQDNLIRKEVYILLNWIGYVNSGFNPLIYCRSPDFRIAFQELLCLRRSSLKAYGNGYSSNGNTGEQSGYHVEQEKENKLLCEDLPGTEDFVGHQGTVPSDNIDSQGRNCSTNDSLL

[17] = biological target: Histamine H2 receptor (Homo sapiens) (UniProt P25021); assay: Binding affinity to H2 receptor (unknown origin) 10 umol/L by radioligand binding assay; details: dose 10.0 µmol/L
[18] = biological target: T2, Metabotropic glutamate receptor 3 (Homo sapiens, UniProt Q14832); assay: Agonist activity at human mGlu3 receptor expressed in CHO cell membranes by GTPgammaS binding assay; type: functional, Cell membrane
T2 sequence (Q14832 whole entry): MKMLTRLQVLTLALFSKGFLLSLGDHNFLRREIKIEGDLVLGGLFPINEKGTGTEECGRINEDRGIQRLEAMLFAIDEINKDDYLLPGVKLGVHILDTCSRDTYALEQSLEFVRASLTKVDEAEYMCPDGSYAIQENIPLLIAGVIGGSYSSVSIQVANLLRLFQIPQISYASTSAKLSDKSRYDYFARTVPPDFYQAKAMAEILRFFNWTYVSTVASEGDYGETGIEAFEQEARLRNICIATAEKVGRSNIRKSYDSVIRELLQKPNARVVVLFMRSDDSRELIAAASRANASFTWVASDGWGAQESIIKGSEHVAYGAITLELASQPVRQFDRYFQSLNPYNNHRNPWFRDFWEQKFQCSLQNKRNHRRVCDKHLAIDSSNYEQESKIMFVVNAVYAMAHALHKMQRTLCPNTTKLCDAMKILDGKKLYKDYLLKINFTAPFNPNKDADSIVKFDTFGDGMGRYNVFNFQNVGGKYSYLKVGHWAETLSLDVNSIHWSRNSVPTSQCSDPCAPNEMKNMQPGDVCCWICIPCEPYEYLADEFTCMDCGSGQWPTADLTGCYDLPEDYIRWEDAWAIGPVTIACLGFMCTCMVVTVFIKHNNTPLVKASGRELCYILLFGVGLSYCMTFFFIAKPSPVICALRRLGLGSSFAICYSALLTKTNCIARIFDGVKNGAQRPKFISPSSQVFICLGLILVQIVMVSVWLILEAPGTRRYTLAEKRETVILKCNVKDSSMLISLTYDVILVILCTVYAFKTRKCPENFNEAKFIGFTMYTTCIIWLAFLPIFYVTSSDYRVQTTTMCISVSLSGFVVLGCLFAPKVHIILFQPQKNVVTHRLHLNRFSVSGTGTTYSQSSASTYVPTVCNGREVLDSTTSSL

[19] = biological target: Androgen receptor (Homo sapiens) (UniProt P10275); assay: Binding affinity to androgen receptor (unknown origin) 10 umol/L by radioligand binding assay; details: dose 10.0 µmol/L
[20] = biological target: D(3) dopamine receptor (Homo sapiens) (UniProt P35462); assay: Binding affinity to D3 receptor (unknown origin) 10 umol/L by radioligand binding assay; details: dose 10.0 µmol/L
Homo sapiens [21] = species: Homo sapiens; assay: Binding affinity to Monoamine transporter (unknown origin) 10 umol/L by radioligand binding assay; details: dose 10.0 µmol/L
Homo sapiens [22] = species: Homo sapiens; assay: Binding affinity to GABAB (unknown origin) 10 umol/L by radioligand binding assay; details: dose 10.0 µmol/L
Homo sapiens [23] = species: Homo sapiens; assay: Binding affinity to Voltage-dependent N-type calcium channel (unknown origin) 10 umol/L by radioligand binding assay; details: dose 10.0 µmol/L
[24] = biological target: Cannabinoid receptor 1 (Homo sapiens) (UniProt P21554); assay: Binding affinity to CB1 (unknown origin) 10 umol/L by radioligand binding assay; details: dose 10.0 µmol/L
Homo sapiens [25] = species: Homo sapiens; assay: Binding affinity to NMDA receptor PCP site (unknown origin) 10 umol/L by radioligand binding assay; details: dose 10.0 µmol/L
[26] = biological target: Cysteinyl leukotriene receptor 1 (Homo sapiens) (UniProt Q9Y271); assay: Binding affinity to Leukotriene D4 receptor (unknown origin) 10 umol/L by radioligand binding assay; details: dose 10.0 µmol/L
Sequence of Cysteinyl leukotriene receptor 1 (Homo sapiens) (Q9Y271 whole entry): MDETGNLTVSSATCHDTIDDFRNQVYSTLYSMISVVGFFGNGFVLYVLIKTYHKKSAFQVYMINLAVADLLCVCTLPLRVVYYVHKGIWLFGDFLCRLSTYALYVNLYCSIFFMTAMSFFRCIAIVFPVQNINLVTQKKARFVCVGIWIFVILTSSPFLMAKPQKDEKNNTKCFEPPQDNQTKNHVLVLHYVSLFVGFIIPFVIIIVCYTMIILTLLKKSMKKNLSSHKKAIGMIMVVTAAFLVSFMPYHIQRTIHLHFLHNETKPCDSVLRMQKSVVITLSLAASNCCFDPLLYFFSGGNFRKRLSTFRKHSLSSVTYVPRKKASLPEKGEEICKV

[27] = biological target: D(2) dopamine receptor (Homo sapiens) (UniProt P14416); assay: Binding affinity to D2S receptor (unknown origin) 10 umol/L by radioligand binding assay; details: dose 10.0 µmol/L
Sequence of D(2) dopamine receptor (Homo sapiens) (P14416 whole entry): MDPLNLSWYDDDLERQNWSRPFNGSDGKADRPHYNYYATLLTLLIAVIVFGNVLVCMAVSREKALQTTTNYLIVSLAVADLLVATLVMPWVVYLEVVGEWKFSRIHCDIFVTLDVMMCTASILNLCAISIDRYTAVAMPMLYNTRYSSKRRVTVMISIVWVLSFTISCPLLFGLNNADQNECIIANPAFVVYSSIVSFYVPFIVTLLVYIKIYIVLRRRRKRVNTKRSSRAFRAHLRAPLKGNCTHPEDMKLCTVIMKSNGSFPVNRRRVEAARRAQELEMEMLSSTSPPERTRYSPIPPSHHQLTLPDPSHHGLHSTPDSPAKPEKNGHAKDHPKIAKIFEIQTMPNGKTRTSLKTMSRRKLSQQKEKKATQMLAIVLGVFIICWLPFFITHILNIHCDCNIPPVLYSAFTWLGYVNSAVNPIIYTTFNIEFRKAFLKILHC

[28] = biological target: Corticotropin-releasing factor receptor 1 (Homo sapiens) (UniProt P34998); assay: Binding affinity to CRF1(unknown origin) 10 umol/L by radioligand binding assay; details: dose 10.0 µmol/L
Sequence of Corticotropin-releasing factor receptor 1 (Homo sapiens) (P34998 whole entry): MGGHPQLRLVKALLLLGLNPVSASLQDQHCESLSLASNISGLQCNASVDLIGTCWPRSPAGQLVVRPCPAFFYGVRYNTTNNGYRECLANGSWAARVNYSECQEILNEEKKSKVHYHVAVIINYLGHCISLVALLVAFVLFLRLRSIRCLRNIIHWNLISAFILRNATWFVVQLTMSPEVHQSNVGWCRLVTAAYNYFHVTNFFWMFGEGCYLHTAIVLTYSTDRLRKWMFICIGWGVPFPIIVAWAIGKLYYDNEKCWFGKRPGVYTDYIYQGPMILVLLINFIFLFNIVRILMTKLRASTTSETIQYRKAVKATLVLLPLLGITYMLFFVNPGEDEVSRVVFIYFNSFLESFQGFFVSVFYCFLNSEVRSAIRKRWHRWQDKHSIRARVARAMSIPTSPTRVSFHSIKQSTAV

[29] = biological target: T2, Metabotropic glutamate receptor 3; assay: Agonist activity at human mGlu3 receptor expressed in CHO cell membranes by GTPgammaS binding assay relative to control; type: functional, Cell membrane
Homo sapiens [30] = species: Homo sapiens; assay: Binding affinity to GABAA receptor agonist site (unknown origin) 10 umol/L by radioligand binding assay; details: dose 10.0 µmol/L
Homo sapiens [31] = species: Homo sapiens; assay: Binding affinity to IP3 receptor (unknown origin) 10 umol/L by radioligand binding assay; details: dose 10.0 µmol/L
[32] = biological target: Neuropeptide Y receptor type 1 (Homo sapiens) (UniProt P25929); assay: Binding affinity to Y1 receptor (unknown origin) 10 umol/L by radioligand binding assay; details: dose 10.0 µmol/L
Homo sapiens [33] = species: Homo sapiens; assay: Binding affinity to GABA transporter (unknown origin) 10 umol/L by radioligand binding assay; details: dose 10.0 µmol/L
[34] = biological target: Histamine H1 receptor (Homo sapiens) (UniProt P35367); assay: Binding affinity to H1 receptor (unknown origin) 10 umol/L by radioligand binding assay; details: dose 10.0 µmol/L
[35] = biological target: Muscarinic acetylcholine receptor M5 (Homo sapiens) (UniProt P08912); assay: Binding affinity to muscarinic M5 (unknown origin) 10 umol/L by radioligand binding assay; details: dose 10.0 µmol/L
Homo sapiens [36] = species: Homo sapiens; assay: Binding affinity to GABAA chloride channel central (unknown origin) 10 umol/L by radioligand binding assay; details: dose 10.0 µmol/L
Homo sapiens [37] = species: Homo sapiens; assay: Binding affinity to GABAA receptor BZ central (unknown origin) 10 umol/L by radioligand binding assay; details: dose 10.0 µmol/L
Homo sapiens [38] = species: Homo sapiens; assay: Binding affinity to nACh receptor (unknown origin) 10 umol/L by radioligand binding assay; details: dose 10.0 µmol/L
[39] = biological target: Sodium-dependent serotonin transporter (Homo sapiens) (UniProt P31645); assay: Inhibition of serotonin transporter (unknown origin) 10 umol/L by radioligand binding assay relative to control; details: dose 10.0 µmol/L
Homo sapiens [40] = species: Homo sapiens; assay: Binding affinity to NMDA receptor polyamine site (unknown origin) 10 umol/L by radioligand binding assay; details: dose 10.0 µmol/L
[41] = biological target: Cholecystokinin receptor type A (Homo sapiens) (UniProt P32238); assay: Binding affinity to CCKA (unknown origin) 10 umol/L by radioligand binding assay; details: dose 10.0 µmol/L
Sequence of Cholecystokinin receptor type A (Homo sapiens) (P32238 whole entry): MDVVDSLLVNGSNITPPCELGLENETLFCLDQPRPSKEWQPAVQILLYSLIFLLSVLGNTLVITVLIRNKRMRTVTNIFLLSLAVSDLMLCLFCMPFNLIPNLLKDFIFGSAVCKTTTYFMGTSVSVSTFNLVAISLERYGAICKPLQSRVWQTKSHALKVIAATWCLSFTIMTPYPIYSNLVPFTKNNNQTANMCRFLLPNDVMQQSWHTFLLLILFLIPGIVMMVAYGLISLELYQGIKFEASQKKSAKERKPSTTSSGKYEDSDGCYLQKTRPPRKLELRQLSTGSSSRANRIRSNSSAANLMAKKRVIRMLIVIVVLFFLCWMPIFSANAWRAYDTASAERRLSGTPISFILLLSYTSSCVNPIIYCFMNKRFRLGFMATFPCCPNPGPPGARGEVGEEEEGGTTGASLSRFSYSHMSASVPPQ

[42] = biological target: Alpha-1A adrenergic receptor (Homo sapiens) (UniProt P35348); assay: Binding affinity to alpha1A adrenoreceptor (unknown origin) 10 umol/L by radioligand binding assay; details: dose 10.0 µmol/L
Sequence of Alpha-1A adrenergic receptor (Homo sapiens) (P35348 whole entry): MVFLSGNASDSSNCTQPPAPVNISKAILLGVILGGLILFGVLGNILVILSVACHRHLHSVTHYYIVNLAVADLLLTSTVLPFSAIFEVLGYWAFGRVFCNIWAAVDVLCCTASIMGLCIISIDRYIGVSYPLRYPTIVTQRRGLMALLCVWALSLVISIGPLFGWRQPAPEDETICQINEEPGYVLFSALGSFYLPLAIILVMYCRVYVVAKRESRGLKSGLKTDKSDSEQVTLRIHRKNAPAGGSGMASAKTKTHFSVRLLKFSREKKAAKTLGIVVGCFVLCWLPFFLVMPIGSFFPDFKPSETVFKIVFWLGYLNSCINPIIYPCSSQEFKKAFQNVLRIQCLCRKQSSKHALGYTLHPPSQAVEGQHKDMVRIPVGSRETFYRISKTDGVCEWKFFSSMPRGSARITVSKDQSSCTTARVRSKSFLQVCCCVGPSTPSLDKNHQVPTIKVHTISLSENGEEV

[43] = biological target: Sigma intracellular receptor 2 (Homo sapiens) (UniProt Q5BJF2); assay: Binding affinity to sigma2 receptor (unknown origin) 10 umol/L by radioligand binding assay; details: dose 10.0 µmol/L
Sequence of Sigma intracellular receptor 2 (Homo sapiens) (Q5BJF2 whole entry): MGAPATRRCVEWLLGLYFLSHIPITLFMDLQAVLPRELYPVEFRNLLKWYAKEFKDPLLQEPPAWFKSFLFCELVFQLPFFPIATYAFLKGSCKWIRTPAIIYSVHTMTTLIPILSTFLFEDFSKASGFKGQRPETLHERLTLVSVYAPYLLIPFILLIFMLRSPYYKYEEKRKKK

Homo sapiens [44] = species: Homo sapiens; assay: Binding affinity to glycine receptor strychnine-sensitive binding site (unknown origin) 10 umol/L by radioligand binding assay; details: dose 10.0 µmol/L
[45] = biological target: T1, Voltage-gated L-type calcium channel; assay: Binding affinity to Voltage-dependent L-type calcium channel phenylalkylamine site (unknown origin) 10 umol/L by radioligand binding assay; type: protein assay; details: 10 µM, dose 10 µmol/L

Sequence of Histamine H3 receptor (Homo sapiens) (Q9Y5N1 whole entry): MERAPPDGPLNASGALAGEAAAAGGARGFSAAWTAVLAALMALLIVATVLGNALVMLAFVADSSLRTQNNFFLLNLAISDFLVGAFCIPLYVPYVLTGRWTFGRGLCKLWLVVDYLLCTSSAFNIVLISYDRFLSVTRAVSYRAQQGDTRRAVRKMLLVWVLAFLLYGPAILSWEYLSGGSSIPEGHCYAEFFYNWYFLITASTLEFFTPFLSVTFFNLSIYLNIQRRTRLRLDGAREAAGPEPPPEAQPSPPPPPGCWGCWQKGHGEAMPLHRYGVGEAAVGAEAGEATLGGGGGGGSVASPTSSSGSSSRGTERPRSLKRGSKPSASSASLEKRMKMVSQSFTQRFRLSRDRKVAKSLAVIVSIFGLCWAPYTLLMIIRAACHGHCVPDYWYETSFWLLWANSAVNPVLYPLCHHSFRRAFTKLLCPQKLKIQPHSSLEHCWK

CC(C)[C@@H]1CC[C@@H](C)C[C@H]1OC(=O)O[C@@H](C)OC(=O)[C@H]1[C@@H]2C[C@H](F)[C@@](N)(C(=O)O)[C@@H]21
Not Active: Activity [15] | Activity [45]
> 2.04: logD at 1.5 h [10]
76%: inhibition [39]
> 30 µM: EC50 [18] | EC50 [29]
inactive: Activity [1] | Activity [2] | Activity [3] | Activity [4] | Activity (Homo sapiens [5]) | Activity [6] | Activity (Homo sapiens [7]) | Activity [8] | Activity [9] | Activity [11] | Activity (Homo sapiens [12]) | Activity [13] | Activity [14] | Activity [16] | Activity [17] | Activity [19] | Activity [20] | Activity (Homo sapiens [21]) | Activity (Homo sapiens [22]) | Activity (Homo sapiens [23]) | Activity [24] | Activity (Homo sapiens [25]) | Activity [26] | Activity [27] | Activity [28] | Activity (Homo sapiens [30]) | Activity (Homo sapiens [31]) | Activity [32] | Activity (Homo sapiens [33]) | Activity [34] | Activity [35] | Activity (Homo sapiens [36]) | Activity (Homo sapiens [37]) | Activity (Homo sapiens [38]) | Activity (Homo sapiens [40]) | Activity [41] | Activity [42] | Activity [43] | Activity (Homo sapiens [44])
